# Article PMC9298352, “Design, Synthesis and Structural Analysis of Glucocerebrosidase Imaging Agents” (Chemistry (Weinheim an Der Bergstrasse, Germany), 2021)
# Biological target: T1, rhGBA (Homo sapiens, UniProt P04062)
# T1 construct: made in house; host or cells: insect-baculovirus expression vector system (BEVS)
# T1 sequence (P04062 40-536): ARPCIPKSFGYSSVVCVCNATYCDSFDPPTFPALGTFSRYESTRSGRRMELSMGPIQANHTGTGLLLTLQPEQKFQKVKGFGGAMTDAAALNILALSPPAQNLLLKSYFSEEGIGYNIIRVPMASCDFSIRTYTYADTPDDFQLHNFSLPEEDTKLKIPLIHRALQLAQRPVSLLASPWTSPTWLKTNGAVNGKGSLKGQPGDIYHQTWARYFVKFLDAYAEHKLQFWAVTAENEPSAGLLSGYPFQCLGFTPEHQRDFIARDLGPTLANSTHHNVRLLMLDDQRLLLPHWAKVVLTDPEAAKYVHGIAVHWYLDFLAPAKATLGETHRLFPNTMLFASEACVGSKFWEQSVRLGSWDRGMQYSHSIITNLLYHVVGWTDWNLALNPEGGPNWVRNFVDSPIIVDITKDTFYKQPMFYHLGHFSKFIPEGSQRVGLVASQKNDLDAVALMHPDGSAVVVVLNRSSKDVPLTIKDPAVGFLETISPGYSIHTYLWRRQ
# Test: pH dependent activity-based labelling of rhGBA by ABP 6 and ABP 9
# Assay type: biochemical
# Details: rhGBA 200 nM, ABP 150 nM, pH 4.5, 5.2 or 7.4, 37 °C, 30 mins
# Procedure: Cy5 tetrazine 20 (2.83 mg, 4.3 µmol) was added to a solution of norbornene 19 (0.94 mg, 2.38 µmol) in MeOH (4 mL). After stirring overnight at rt, the reaction mixture was concentrated in vacuo and purified by HPLC under neutral conditions (A: 50 mM NH4HCO3 in H2O; B: MeCN; 49% → 52%, A in B) yielding ABP 7 (2.12 mg, 2.07 µmol, 87%) as a mixture of regioisomers.
# Biochemical Methods: General Experimental Details
# Recombinant human GBA (rhGBA, imiglucerase, Cerezyme®) and GAA (rhGAA, alglucosidase alfa, Myozyme) were obtained from Sanofi Genzyme (Cambridge, MA, USA). HEK293T (CRL-3216) cell lines were purchased from ATCC (Manassas, VA, USA). […] All the tissue lysates were prepared in potassium phosphate lysis buffer (25 mM in pH 6.5, supplemented with 0.1% (v/v) Triton X-100 and protease inhibitor 1x cocktail (Roche)) via homogenization with silent crusher S equipped with Typ 7 F/S head (30 rpm x 1000, 3 × 7 sec) on ice and lysate concentration was determined with Bicinchoninic acid (BCA) Protein Assay Kit (PierceTM)[7]. […]
# ABP 9 were diluted with DMSO into various concentrations (200x of the final concentration), and 5 µL of ABP at different concentrations were added into 1 mL fresh medium containing cells and incubated at 37°C for 24 h. […] The protein concentrations were determined using BCA kit. […]
compound,measurement,value
CCCCCCCCN1[C@@H]2[C@H](Cn3cc(CNC(=O)CCCCC[N+]4=C(/C=C/C=C/C=C5/N(C)c6ccccc6C5(C)C)C(C)(C)c5ccccc54)nn3)[C@@H](O)[C@H](O)[C@@H](O)[C@@H]21 (stereo partly shown) [ABP 6],pH dependence of rhGBA labelling,greater labelling at acidin pH (4.5 and 5.2)
